Measurements from a melting point compilation (Tetko et al.; mined from patent text by program, amines drawn as free bases though some values may be those of a salt).

| melting point [°C] | Compound |
| --- | --- |
| 193 to 197 | CC(C)(C)N(NC(=O)c1cncc(Br)c1)C(=O)c1ccc(Cl)cc1 |
| 86.5 to 87 | CCCN1C(=O)C2(CC(C)C)CC(c3ccc(N)cc3)(C2)C1=O |
| 118 to 120 | O=C(O)COc1cc(Cl)ccc1C(=O)NCCN1CCN(Cc2ccc(Cl)c(Cl)c2)CC1 |
| 226 to 227 | CN1C(=O)S/C(=C\c2cn(-c3ccccc3)nc2OCc2ccccc2)C1=O |
| 150 | CC1(C)C=C(c2cccnc2)c2cc(C#N)ccc2OC1 |
| 232 to 236 | Cc1cn2c(n1)-c1ccccc1Nc1ccccc1-2 |
| 275 | NC(C(=O)O)c1ccc(C=CC2CC2)[nH]1 (centres undefined) |
| 165 to 166 | O=C(Cc1ccc2[nH]cc(CCN3C(=O)c4ccccc4C3=O)c2c1)NCc1ccccc1 |
| 116 to 120 | CCOC(=O)c1c(O)c2ccccc2n(Cc2ccc(F)cc2)c1=O |
| 220 to 222 | O=C(Nc1ccccc1)OCC1(COC(=O)Nc2ccccc2)CS(=O)c2ccccc2C1=O (centres undefined) |
| 213 to 216 | COc1ccc(Nc2nc(=O)cc(N)n2-c2ccccc2)cc1 |
| 218 to 221 | CNC(=NC#N)NCCSc1nccc(NC(N)=NCC(F)(F)F)n1 |
| 90.4 to 93.5 | OCC1CC2CC2N1c1cncc(Br)c1 (centres undefined) |
| 72 | COc1ccc2occ(CCN3CCN(c4cc(Cl)cc5cccnc45)CC3)c2c1 |
| 198 to 200 | O=C(c1ccc(O)cc1)c1sc2cc(O)ccc2c1-c1ccccc1 |
| 139 to 144 | CCCCc1nc(C(C)(C)O)c(C(=O)OCOC(=O)C(C)(C)C)n1Cc1ccc(-c2ccccc2C(=O)O)cc1 |
| 208 to 210 | CCn1c(NC)n[nH]c1=O |
| 157 to 159 | Cc1cccc(N(C=C(C#N)C#N)N=C(C#N)C#N)c1 |
| 149 to 150 | Cc1ccc(S(=O)(=O)OC[C@H]2OC(=O)N[C@H]2Cc2ccccc2)cc1 |
| 155 to 157 | CC(C)(C)OC(=O)c1cc(-c2ccccc2)c(=O)n2ccc3ccsc3c12 |

| melting point [°C] | Compound |
| --- | --- |
| 85 to 86 | Cc1c(C)c2c(c(C)c1NC(=O)CCCOCc1ccccc1)C(c1ccc(C(C)C)cc1)CO2 (centres undefined) |
| 218 to 219 | O=C(Nc1ccc2cc(CN3CCCCC3)ccc2c1)c1ccc(-c2ccc(F)cc2)nc1 |
| 163 to 164 | CSCc1cn(C)c2cc(Cl)ccc2c1=O |
| 57 to 60 | CCCCCCCCCCCCCCOc1ccc([N+](=O)[O-])cc1 |
| 117 to 119 | Cn1cc(S(=O)(=O)C(F)(F)F)c(-c2ccc(Cl)cc2)c1Cl |
| 61 to 63 | CCCOC(Cc1ccc(OCCc2nc(C3CC3)oc2C)c2ccsc12)C(=O)O (centres undefined) |
| 200 to 201 | CCCc1nc2c(N)nc(C)c(C)c2n1CCCCNC(C)=O |
| 159 to 162 | Cc1nnc(-c2ccccc2F)n2nc(OCc3ncnn3C)c(-c3ccccc3)c12 |
| 122 to 124 | O=c1c2cccnc2c(-c2cccc(Cl)c2)cn1CC1CCCC1 |
| 194 to 195 | NS(=O)(=O)c1cc2ccc(O)cc2[nH]1 |
| 209 to 211 | COc1ccc(SC2(Sc3ccc(OC)cc3)CCC3C4CCC5=CC(=O)C=CC5(C)C4(F)C(O)CC32C)cc1 (centres undefined) |
| 84 to 85 | Cc1oc(-c2ccccc2)nc1COc1ccc(CON=C(CCCCCC(=O)O)c2ccccc2)cc1 |
| 210 | O=C(NC(Cc1ccc(OCc2ccccc2)cc1)C(=O)O)c1cn2cccc(OCc3ccc(Cl)cc3)c2n1 (centres undefined) |
| 170 | COc1ccc(C(=O)N(C)Cc2cccc(-c3ccc(CC4SC(=O)NC4=O)cc3)c2)cc1 (centres undefined) |
| 84 to 87 | CCCCCCCCCCCCCCOc1ccc(C(=O)N(CC(=O)O)CC(=O)O)cc1OCCCCCCCCCCCCCC |
| 150 to 151 | O=C(O)CCCc1oc(Cl)nc1-c1ccc(Cl)cc1 |
| 39.8 to 41 | COc1nc(C)c(N)cc1C |
| 70 to 77 | O=C(CN1CCC(Cc2ccc(F)cc2)CC1)Nc1ccc(O)cc1 |
| 86 to 88 | CC(=O)N(C)C(Cc1ccncc1)C(=O)O (centres undefined) |
